This note sets out measurements from article PMC9147192, “Small Molecule Arranged Thermal Proximity Coaggregation (smarTPCA)—A Novel Approach to Characterize Protein–Protein Interactions in Living Cells by Similar Isothermal Dose–Responses” (International Journal of Molecular Sciences, 2022).

Structures are written as SMILES.

What all share (assay): TPP-CCR in living HL-60 cells
Common to all, as to format: cell-based

For one assay, the target named is T1, ENDOG (Homo sapiens, UniProt Q14249).
T1 construct: endogenous in cells; host or cells: HL-60 (ATCC CCL-240)
T1 sequence (Q14249 49-297): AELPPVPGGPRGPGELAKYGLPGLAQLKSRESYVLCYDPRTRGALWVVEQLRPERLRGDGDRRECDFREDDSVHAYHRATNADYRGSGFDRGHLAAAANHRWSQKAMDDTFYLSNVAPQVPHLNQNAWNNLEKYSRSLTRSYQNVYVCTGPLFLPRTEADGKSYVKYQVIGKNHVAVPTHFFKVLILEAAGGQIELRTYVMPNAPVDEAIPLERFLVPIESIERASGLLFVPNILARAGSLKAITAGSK

For a further assay, the target named is T2, PDIA6 (Homo sapiens, UniProt Q15084).
T2 construct: endogenous in cells; host or cells: HL-60 (ATCC CCL-240)
T2 sequence (Q15084 20-440): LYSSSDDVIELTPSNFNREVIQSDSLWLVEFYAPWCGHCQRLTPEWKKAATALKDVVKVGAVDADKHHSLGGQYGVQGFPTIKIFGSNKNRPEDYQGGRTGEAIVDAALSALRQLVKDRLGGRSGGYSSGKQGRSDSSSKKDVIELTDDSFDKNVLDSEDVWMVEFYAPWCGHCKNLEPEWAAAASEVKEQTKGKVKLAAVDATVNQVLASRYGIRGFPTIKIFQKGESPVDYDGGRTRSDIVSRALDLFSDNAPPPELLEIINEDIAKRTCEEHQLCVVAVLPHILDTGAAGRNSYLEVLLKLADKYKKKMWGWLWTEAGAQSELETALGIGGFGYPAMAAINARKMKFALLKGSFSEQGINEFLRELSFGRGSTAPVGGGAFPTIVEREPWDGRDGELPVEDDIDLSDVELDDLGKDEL

Another assay deals with T3, UNC119B (Homo sapiens, UniProt A6NIH7).
T3 construct: endogenous in cells; host or cells: HL-60 (ATCC CCL-240)

Where [1] appears, read: living HL-60 cells, […] °C, TMT-MS.

T3 sequence (A6NIH7 whole entry): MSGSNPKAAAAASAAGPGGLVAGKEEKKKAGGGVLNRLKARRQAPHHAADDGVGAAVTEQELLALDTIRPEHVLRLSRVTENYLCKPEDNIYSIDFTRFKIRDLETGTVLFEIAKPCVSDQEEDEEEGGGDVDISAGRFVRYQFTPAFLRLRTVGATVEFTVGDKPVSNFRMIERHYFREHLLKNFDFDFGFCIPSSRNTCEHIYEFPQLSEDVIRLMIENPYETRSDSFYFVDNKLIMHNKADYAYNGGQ

Consider `Cc1cnc(Nc2ccc(F)cc2Cl)nc1-c1c[nH]c(C(=O)N[C@H](CO)c2cccc(Cl)c2)c1` [ERK 11e], for which the Hill slope – broadly, a measure of the steepness of the concentration-response curve – on ENDOG (TPP-CCR, living cells, ENDOG) turned out to be 0.40; on PDIA6 (TPP-CCR, living cells, PDIA6) it was 1.33; on UNC119B (TPP-CCR, living cells, UNC119B), 0.67. At ENDOG (setting [1]), the “Hill slope (ENDOG)” value turned out to be 0.40. Also, the EC50 at ENDOG (living HL-60 cells, […] °C, TMT-MS, read-out: pEC50 (ENDOG) (converted)) is 2.75 nM; at PDIA6 (living HL-60 cells, […] °C, TMT-MS, read-out: pEC50 (PDIA6) (converted)), 3550 nM; at UNC119B (living HL-60 cells, […] °C, TMT-MS, read-out: pEC50 (UNC119B) (converted)) it was 1050 nM. At PDIA6 (setting [1]), the “Hill slope (PDIA6)” value is 1.33. The “Hill slope (UNC119B)” value on UNC119B (setting [1]) was found to be 0.67.
